Assay results published in US8148365B2 (priority 2006, dated 2012).
Counter-ions that a name gives are not always drawn.

Target: α7-subtype of nicotinic receptors (Rattus norvegicus, UniProt Q05941)
Test: biochemical
Assay type: binding

α7-subtype of nicotinic receptors, sequence (Q05941 23-502): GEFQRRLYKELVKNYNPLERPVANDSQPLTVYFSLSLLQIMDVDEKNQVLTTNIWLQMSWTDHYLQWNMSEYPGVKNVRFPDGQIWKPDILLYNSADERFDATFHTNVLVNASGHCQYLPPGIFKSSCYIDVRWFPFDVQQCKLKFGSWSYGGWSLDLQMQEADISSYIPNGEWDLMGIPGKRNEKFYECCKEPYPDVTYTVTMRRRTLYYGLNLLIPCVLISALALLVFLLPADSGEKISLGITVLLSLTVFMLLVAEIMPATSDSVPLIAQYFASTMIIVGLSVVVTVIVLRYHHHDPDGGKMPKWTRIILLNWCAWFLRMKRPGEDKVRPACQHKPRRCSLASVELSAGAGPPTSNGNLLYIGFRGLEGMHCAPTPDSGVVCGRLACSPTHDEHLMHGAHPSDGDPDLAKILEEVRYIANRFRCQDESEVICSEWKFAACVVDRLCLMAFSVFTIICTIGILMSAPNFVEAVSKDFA

## O=C(Nc1cnc(N2CCN3CCC2CC3)nc1)c1ccccc1 [Compound 1, N-[2-(1,4-Diaza-bicyclo[3.2.2]non-4-yl)-pyrimidin-5-yl]-benzamide hydrochloric acid salt]
  IC50: < 0.1 µM
